Key:
[1] = biological target: T1, HiBit-BRG1 fusion protein in stable HeLa cell line expressing HiBit-BRG1 and LgBit (Homo sapiens, UniProt P51532); experiment: HiBiT-BRG1 cell-based degradation assay (Nano-Glo HiBiT, 24 h); conditions: HeLa HiBit-BRG1/LgBit cells; for DC50: read-out: BRMG1 HiBit Degradation IC50; for Dmax: top dose 30 μM, read-out: BRG1 HiBit Degradation Maximum (%)
T1 construct: expressed in transfected cells
Summary of the method: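 Degradation calculated from NanoBiT luminescence relative to DMSO-treated cells (high) and cells given 2 μM known BRM/BRG1 degrader (low). HeLa cells stably expressing HiBiT-BRG1 plus LgBiT were exposed to compound for 24 h before lytic HiBiT detection.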

[2] = biological target: T2, HiBiT-BRM fusion protein in stable HeLa cell line (Homo sapiens, UniProt P51531); experiment: HiBiT-BRM cell-based degradation assay (Nano-Glo HiBiT Lytic Detection, 24 h); design: DC50: scale not given here; conditions: HeLa HiBiT-BRM cells; for DC50: read-out: BRM HiBit Degradation IC50; for BRM HiBit Degradation Maximum (%): top dose 30 μM
T2 construct: expressed in transfected cells
Summary of the method: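 HeLa stably expressing HiBiT-BRM; 24 h compound exposure, 10-pt 3-fold dilution from 30 μM final, duplicates. Lytic LgBiT complementation, luminescence. % degradation vs DMSO (HC) and 2 μM known BRM/BRG1 degrader (LC).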

T1 sequence (P51532 whole entry, the tested form may be a part): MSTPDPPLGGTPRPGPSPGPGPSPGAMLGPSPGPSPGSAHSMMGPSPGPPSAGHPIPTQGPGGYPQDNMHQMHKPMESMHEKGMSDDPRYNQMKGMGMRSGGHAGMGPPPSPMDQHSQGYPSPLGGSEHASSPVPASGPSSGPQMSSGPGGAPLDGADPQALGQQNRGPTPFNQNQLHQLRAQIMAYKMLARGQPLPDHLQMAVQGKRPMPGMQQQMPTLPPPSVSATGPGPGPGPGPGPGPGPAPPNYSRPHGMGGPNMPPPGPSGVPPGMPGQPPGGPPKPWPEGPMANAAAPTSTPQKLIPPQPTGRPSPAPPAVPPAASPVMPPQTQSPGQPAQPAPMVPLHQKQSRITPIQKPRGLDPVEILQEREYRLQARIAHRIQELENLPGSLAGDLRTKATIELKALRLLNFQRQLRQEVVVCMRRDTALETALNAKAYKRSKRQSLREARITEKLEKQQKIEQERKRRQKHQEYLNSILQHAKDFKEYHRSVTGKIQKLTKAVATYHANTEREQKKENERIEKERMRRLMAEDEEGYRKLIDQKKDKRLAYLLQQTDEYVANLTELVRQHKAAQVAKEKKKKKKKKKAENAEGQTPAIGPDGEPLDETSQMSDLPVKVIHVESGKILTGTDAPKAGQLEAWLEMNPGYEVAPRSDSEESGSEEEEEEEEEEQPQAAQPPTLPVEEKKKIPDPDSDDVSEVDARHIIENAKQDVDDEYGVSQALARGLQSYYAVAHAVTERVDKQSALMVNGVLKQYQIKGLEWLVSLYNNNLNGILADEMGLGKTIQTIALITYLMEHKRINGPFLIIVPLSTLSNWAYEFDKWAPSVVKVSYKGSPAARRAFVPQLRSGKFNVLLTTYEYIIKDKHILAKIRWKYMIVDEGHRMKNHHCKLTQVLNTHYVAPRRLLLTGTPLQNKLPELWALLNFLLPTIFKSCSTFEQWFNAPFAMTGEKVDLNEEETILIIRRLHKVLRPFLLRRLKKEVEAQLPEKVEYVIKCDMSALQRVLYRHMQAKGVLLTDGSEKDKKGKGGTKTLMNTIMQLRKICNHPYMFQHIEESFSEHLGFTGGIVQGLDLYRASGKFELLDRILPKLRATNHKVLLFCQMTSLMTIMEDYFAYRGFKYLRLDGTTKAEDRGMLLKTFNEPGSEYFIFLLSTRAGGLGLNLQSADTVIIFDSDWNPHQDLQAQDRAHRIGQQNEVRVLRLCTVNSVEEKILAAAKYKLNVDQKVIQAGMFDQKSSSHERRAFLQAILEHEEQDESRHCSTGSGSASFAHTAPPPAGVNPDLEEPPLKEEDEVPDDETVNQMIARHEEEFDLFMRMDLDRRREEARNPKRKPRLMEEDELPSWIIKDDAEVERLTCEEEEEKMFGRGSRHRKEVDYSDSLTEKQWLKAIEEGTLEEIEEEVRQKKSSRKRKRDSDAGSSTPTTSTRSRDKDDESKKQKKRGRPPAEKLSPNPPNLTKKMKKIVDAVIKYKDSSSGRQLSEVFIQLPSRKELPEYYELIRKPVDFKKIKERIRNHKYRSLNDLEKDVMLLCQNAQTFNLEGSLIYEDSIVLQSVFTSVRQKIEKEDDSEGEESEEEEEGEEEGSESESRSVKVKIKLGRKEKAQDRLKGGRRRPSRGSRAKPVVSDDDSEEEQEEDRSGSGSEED
T2 sequence (P51531 whole entry, the tested form may be a part): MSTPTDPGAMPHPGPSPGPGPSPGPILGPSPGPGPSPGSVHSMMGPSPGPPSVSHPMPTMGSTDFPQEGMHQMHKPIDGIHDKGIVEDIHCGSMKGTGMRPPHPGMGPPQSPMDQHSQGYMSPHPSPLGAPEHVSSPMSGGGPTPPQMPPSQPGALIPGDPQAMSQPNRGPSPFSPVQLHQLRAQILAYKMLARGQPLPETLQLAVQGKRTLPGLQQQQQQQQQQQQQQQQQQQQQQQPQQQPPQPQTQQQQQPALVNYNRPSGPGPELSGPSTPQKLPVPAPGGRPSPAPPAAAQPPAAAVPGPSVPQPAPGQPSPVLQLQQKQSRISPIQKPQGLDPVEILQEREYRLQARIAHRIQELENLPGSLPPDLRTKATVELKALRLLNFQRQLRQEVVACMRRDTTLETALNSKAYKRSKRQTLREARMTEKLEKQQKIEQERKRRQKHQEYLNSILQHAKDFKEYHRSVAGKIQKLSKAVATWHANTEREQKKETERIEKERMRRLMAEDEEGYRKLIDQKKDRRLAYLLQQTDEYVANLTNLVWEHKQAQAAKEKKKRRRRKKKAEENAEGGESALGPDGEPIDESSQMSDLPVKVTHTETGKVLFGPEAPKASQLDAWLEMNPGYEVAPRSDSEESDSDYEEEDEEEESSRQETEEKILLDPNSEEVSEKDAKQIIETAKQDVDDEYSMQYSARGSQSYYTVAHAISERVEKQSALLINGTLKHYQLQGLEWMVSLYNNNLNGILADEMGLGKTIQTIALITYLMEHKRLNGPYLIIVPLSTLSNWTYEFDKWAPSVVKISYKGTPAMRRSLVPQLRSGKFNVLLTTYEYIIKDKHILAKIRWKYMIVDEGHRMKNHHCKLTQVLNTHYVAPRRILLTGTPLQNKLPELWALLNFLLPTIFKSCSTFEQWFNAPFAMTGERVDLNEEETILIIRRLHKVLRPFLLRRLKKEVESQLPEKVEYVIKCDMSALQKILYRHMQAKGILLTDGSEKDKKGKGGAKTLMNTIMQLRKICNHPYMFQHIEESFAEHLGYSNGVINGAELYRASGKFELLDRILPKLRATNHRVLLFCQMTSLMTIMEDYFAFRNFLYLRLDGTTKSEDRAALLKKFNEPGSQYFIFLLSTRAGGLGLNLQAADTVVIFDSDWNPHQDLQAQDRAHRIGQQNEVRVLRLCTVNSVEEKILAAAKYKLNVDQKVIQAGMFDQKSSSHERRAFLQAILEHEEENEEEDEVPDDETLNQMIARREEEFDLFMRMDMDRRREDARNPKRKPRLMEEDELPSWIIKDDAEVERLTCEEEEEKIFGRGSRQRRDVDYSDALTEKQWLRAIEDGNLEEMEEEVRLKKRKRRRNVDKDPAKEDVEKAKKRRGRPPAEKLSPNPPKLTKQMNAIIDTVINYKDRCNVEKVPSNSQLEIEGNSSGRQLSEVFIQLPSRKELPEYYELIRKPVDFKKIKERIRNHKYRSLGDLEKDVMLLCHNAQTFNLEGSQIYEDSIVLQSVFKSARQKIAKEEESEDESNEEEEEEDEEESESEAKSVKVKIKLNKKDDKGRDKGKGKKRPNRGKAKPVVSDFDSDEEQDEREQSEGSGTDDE

Row | Compound | DC50 [1] [nM] | Dmax [1] [%] | DC50 [2] [nM] | BRM HiBit Degradation Maximum (%) [2]
1 | Cc1ncsc1-c1ccc([C@H](C)NC(=O)[C@@H]2C[C@@H](O)CN2C(=O)[C@@H](c2cc(N3CC4(C3)CN(c3cc5nnc(-c6ccccc6O)cc5cc3Cl)C4)no2)C(C)C)cc1 [Compound 157, (2S,4R)-1-((R)-2-(3-(6-(6-chloro-3-(2-hydroxyphenyl)cinnolin-7-yl)-2,6-diazaspiro[3.3]heptan-2-yl)isoxazol-5-yl)-3-methylbutanoyl)-4-hydroxy-N-((S)-1-(4-(4-methylthiazol-5-yl)phenyl)ethyl)pyrrolidine-2-carboxamide] | < 10 | > 50 | < 10 | A (“A” indicates maximum degradation ≥75%)
2 | COc1cc2nnc(-c3ccccc3O)cc2cc1N1CC2(CN(c3cc([C@H](C(=O)N4C[C@H](O)C[C@H]4C(=O)N[C@@H](C)c4ccc(-c5scnc5C)cc4)C(C)C)on3)C2)C1 [Compound 158, (2S,4R)-4-hydroxy-1-((R)-2-(3-(6-(3-(2-hydroxyphenyl)-7-methoxycinnolin-6-yl)-2,6-diazaspiro[3.3]heptan-2-yl)isoxazol-5-yl)-3-methylbutanoyl)-N-((S)-1-(4-(4-methylthiazol-5-yl)phenyl)ethyl)pyrrolidine-2-carboxamide] | < 10 | > 75 | < 10 | A (“A” indicates maximum degradation ≥75%)
3 | COc1cc2cc(-c3ccccc3O)nnc2cc1N1CC2(CN(c3cc([C@H](C(=O)N4C[C@H](O)C[C@H]4C(=O)N[C@@H](C)c4ccc(-c5scnc5C)cc4)C(C)C)on3)C2)C1 [Compound 159, (2S,4R)-4-hydroxy-1-((R)-2-(3-(6-(3-(2-hydroxyphenyl)-6-methoxycinnolin-7-yl)-2,6-diazaspiro[3.3]heptan-2-yl)isoxazol-5-yl)-3-methylbutanoyl)-N-((S)-1-(4-(4-methylthiazol-5-yl)phenyl)ethyl)pyrrolidine-2-carboxamide] | < 10 | > 75 | < 10 | A (“A” indicates maximum degradation ≥75%)
4 | Cc1ncsc1-c1ccc([C@H](C)NC(=O)[C@@H]2C[C@@H](O)CN2C(=O)[C@@H](c2ccnc(N3CC4(CN(c5ccc6nnc(-c7ccccc7O)cc6c5)C4)C3)c2)C(C)C)cc1 [Compound 160, (2S,4R)-4-hydroxy-1-[(2R)-2-(2-{6-[3-(2-hydroxyphenyl)cinnolin-6-yl]-2,6-diazaspiro[3.3]heptan-2-yl}pyridin-4-yl)-3-methylbutanoyl]-N-[(1S)-1-[4-(4-methyl-1,3-thiazol-5-yl)phenyl]ethyl]pyrrolidine-2-carboxamide] |  | < 50 |  | B (“B” indicates maximum degradation ≥50%)
5 | Cc1ncsc1-c1ccc([C@H](C)NC(=O)[C@@H]2C[C@@H](O)CN2C(=O)[C@@H](c2cc(N3CCOC4(CN(c5ccc6cc(-c7ccccc7O)nnc6c5)C4)C3)no2)C(C)C)cc1 [Compound 162, (2S,4R)-4-hydroxy-1-((R)-2-(3-(2-(3-(2-hydroxyphenyl)cinnolin-7-yl)-5-oxa-2,8-diazaspiro[3.5]nonan-8-yl)isoxazol-5-yl)-3-methylbutanoyl)-N-((S)-1-(4-(4-methylthiazol-5-yl)phenyl)ethyl)pyrrolidine-2-carboxamide] | < 10 | > 75 | < 10 | A (“A” indicates maximum degradation ≥75%)
6 | Cc1ncsc1-c1ccc([C@H](C)NC(=O)[C@@H]2C[C@@H](O)CN2C(=O)[C@@H](c2cc(N3CC4(CN(c5cc(Cl)c6cc(-c7ccccc7O)nnc6c5)C4)C3)no2)C(C)C)cc1 [Compound 163, (2S,4R)-1-((R)-2-(3-(6-(5-chloro-3-(2-hydroxyphenyl)cinnolin-7-yl)-2,6-diazaspiro[3.3]heptan-2-yl)isoxazol-5-yl)-3-methylbutanoyl)-4-hydroxy-N-((S)-1-(4-(4-methylthiazol-5-yl)phenyl)ethyl)pyrrolidine-2-carboxamide] |  | < 50 | < 10 | A (“A” indicates maximum degradation ≥75%)
7 | Cc1ncsc1-c1ccc([C@H](C)NC(=O)[C@@H]2C[C@@H](O)CN2C(=O)[C@@H](c2cc(N3CC4(C3)CN(c3cc5cc(-c6ccccc6O)nnc5cc3C(F)F)C4)no2)C(C)C)cc1 [Compound 164, (2S,4R)-1-((R)-2-(3-(6-(7-(difluoromethyl)-3-(2-hydroxyphenyl)cinnolin-6-yl)-2,6-diazaspiro[3.3]heptan-2-yl)isoxazol-5-yl)-3-methylbutanoyl)-4-hydroxy-N-((S)-1-(4-(4-methylthiazol-5-yl)phenyl)ethyl)pyrrolidine-2-carboxamide] | < 10 | > 75 | < 10 | A (“A” indicates maximum degradation ≥75%)
8 | Cc1ncsc1-c1ccc([C@H](C)NC(=O)[C@@H]2C[C@@H](O)CN2C(=O)[C@@H](c2cc(N3CCC4(CC3)CN(c3ccc5nnc(-c6ccccc6O)cc5c3)CCN4C)no2)C(C)C)cc1 [Compound 165, (2S,4R)-4-hydroxy-1-((R)-2-(3-(4-(3-(2-hydroxyphenyl)cinnolin-6-yl)-1-methyl-1,4,9-triazaspiro[5.5]undecan-9-yl)isoxazol-5-yl)-3-methylbutanoyl)-N-((S)-1-(4-(4-methylthiazol-5-yl)phenyl)ethyl)pyrrolidine-2-carboxamide] | < 10 | > 75 | < 10 | A (“A” indicates maximum degradation ≥75%)
9 | Cc1ncsc1-c1ccc([C@H](C)NC(=O)[C@@H]2C[C@@H](O)CN2C(=O)[C@@H](c2cc(N3CCCC4(CN(c5ccc6nnc(-c7ccccc7O)cc6c5)C4)C3)no2)C(C)C)cc1 [Compound 166, (2S,4R)-4-hydroxy-1-((R)-2-(3-(2-(3-(2-hydroxyphenyl)cinnolin-6-yl)-2,6-diazaspiro[3.5]nonan-6-yl)isoxazol-5-yl)-3-methylbutanoyl)-N-((S)-1-(4-(4-methylthiazol-5-yl)phenyl)ethyl)pyrrolidine-2-carboxamide] | > 10 | > 75 | < 10 | A (“A” indicates maximum degradation ≥75%)
10 | Cc1ncsc1-c1ccc([C@H](C)NC(=O)[C@@H]2C[C@@H](O)CN2C(=O)[C@@H](c2cc(N3CC4(C3)CN(c3cc5nnc(-c6ccccc6O)cc5cc3C#N)C4)no2)C(C)C)cc1 [Compound 167, (2S,4R)-1-((R)-2-(3-(6-(6-cyano-3-(2-hydroxyphenyl)cinnolin-7-yl)-2,6-diazaspiro[3.3]heptan-2-yl)isoxazol-5-yl)-3-methylbutanoyl)-4-hydroxy-N-((S)-1-(4-(4-methylthiazol-5-yl)phenyl)ethyl)pyrrolidine-2-carboxamide] |  | < 50 | < 10 | A (“A” indicates maximum degradation ≥75%)
11 | Cc1ncsc1-c1ccc([C@H](C)NC(=O)[C@@H]2C[C@@H](O)CN2C(=O)[C@@H](c2cc(N3CC4(C3)CN(c3cc5nnc(-c6ccccc6O)cc5cc3C(F)F)C4)no2)C(C)C)cc1 [Compound 168, (2S,4R)-1-((R)-2-(3-(6-(6-(difluoromethyl)-3-(2-hydroxyphenyl)cinnolin-7-yl)-2,6-diazaspiro[3.3]heptan-2-yl)isoxazol-5-yl)-3-methylbutanoyl)-4-hydroxy-N-((S)-1-(4-(4-methylthiazol-5-yl)phenyl)ethyl)pyrrolidine-2-carboxamide] | < 10 | > 50 | < 10 | A (“A” indicates maximum degradation ≥75%)
12 | Cc1ncsc1-c1ccc([C@H](C)NC(=O)[C@@H]2C[C@@H](O)CN2C(=O)[C@H](C(C)C)n2cc(N3CC4(CN(c5ccc6cc(-c7ccccc7O)nnc6c5)C4)C3)nn2)cc1 [Compound 169, (2S,4R)-4-hydroxy-1-((S)-2-(4-(6-(3-(2-hydroxyphenyl)cinnolin-7-yl)-2,6-diazaspiro[3.3]heptan-2-yl)-1H-1,2,3-triazol-1-yl)-3-methylbutanoyl)-N-((S)-1-(4-(4-methylthiazol-5-yl)phenyl)ethyl)pyrrolidine-2-carboxamide] | < 10 | > 50 | < 10 | A (“A” indicates maximum degradation ≥75%)
13 | Cc1ncsc1-c1ccc([C@H](C)NC(=O)[C@@H]2C[C@@H](O)CN2C(=O)[C@H](C(C)C)n2cc(-c3cc4cc(-c5ccccc5O)nnc4cc3C#N)nn2)cc1 [Compound 170, (2S,4R)-1-[(2S)-2-{4-[7-cyano-3-(2-hydroxyphenyl)cinnolin-6-yl]-1,2,3-triazol-1-yl}-3-methylbutanoyl]-4-hydroxy-N-[(1S)-1-[4-(4-methyl-1,3-thiazol-5-yl)phenyl]ethyl]pyrrolidine-2-carboxamide] |  | < 50 | > 10 | B (“B” indicates maximum degradation ≥50%)
14 | Cc1ncsc1-c1ccc([C@H](C)NC(=O)[C@@H]2C[C@@H](O)CN2C(=O)[C@H](C(C)C)n2cc(-c3cc4cc(-c5ccccc5O)nnc4cc3C(F)F)nn2)cc1 [Compound 171, (2S,4R)-1-((S)-2-(4-(7-(difluoromethyl)-3-(2-hydroxyphenyl)cinnolin-6-yl)-1H-1,2,3-triazol-1-yl)-3-methylbutanoyl)-4-hydroxy-N-((S)-1-(4-(4-methylthiazol-5-yl)phenyl)ethyl)pyrrolidine-2-carboxamide] | < 10 | > 75 | < 10 | A (“A” indicates maximum degradation ≥75%)
